Patent US20240342186A1, “PYRIDINE DERIVATIVES WITH N-LINKED CYCLIC SUBSTITUENTS AS cGAS INHIBITORS” (Boehringer Ingelheim International GmbH, priority 2021, published 2024)
Where two headings read alike, the source gives them in different places.

Columns and labels:
[1] = tested on: cGAMP-stimulated THP1-Dual cells (pathway directly downstream of cGAS); assay: cGAMP stimulated counter cell assay: inhibition of IFN induction in cGAMP-stimulated THP1 cells (THP1(cGAMP) IC50); type: cell-based, human; details: for IC50: Homo sapiens, THP1-Dual, read-out: THP1(cGAMP) IC50 (converted); for Ratio THP1(cGAMP) IC50 / THP1(vir) IC50: selectivity for cGAS inhibition
Source text: (§1) 6.2 Method: Human cGAS Cell Assay and cGAMP Stimulated Counter Cell Assay (THP1(vir) IC50 and THP1(cGAMP) IC50)
(§2) THP1-Dual™ cells (InvivoGen #thpd-nfis) expressing IRF dependent Lucia luciferase reporter were used as basis for both assays. For the detection of cellular cGAS activity cells were stimulated by a baculovirus (pFastbac-1, Invitrogen, no coding insert) infection that delivers the cGAS enzyme stimulating double-stranded DNA (measurement of THP1(vir) IC50).
(§3) For the counter assay, cells were stimulated by cGAMP (SigmaAldrich #SML1232) to activate the identical pathway independent and directly downstream of cGAS (measurement of THP1(cGAMP) IC50). Pathway activity was monitored by measuring the Lucia luciferase activity induced by either DNA stimulated cGAS enzyme activity (measurement of THP1(vir) IC50) or by cGAMP directly (measurement of THP1(cGAMP) IC50, counter assay).
(§4) Compounds were delivered in 10 mM DMSO solution, serially diluted and transferred to the 384 well assay plate (Greiner #781201) using an Echo acoustic dispenser. Typically, 8 concentrations were used with the highest concentration at 10 μM in the final assay volume followed by ˜1:5 dilution steps. DMSO concentration was set to 1% in the final assay volume. The 384 well assay plate contained 21 test compounds (column 1-22), and DMSO in column 23 and 24.
(§5) Cells, cultivated according to manufacturer conditions, were harvested by centrifugation at 300 g/10 min and were then resuspended and diluted to 1.66E5 cells/ml in fresh cell culture medium (RPMI 1640 (Gibco #A10491-01), 10% FCS (Gibco #10500), 1× GlutaMax (Gibco #35050-061), 1× Pen/Strep solution (Gibco #15140-122), 100 μg/ml Normocin (InvivoGen #ant-nr), 100 μg/ml Zeocin (InvivoGen #ant-zn), 10 μg/ml Blasticidin S (Life Technologies #A11139-03)). The baculovirus solution was then added 1:200 (have varied according to virus batch) to the cells (measurement of THP1(vir) IC50).
(§6) 30 μL of the cell/virus-mix were added to each well of the compound plate from column 1-23 via MultiDrop Combi dispenser (5000 cells/well). In column 24, 30 μl/5000 cells/well without virus were added as a low control.
(§7) The plates were then incubated for 18 h at 37° C. in a humidified incubator.
(§8) Following that, 15 μl of QuantiLuc detection reagent (InvivoGen #rep-qlcg5) were added to each well using a MultiDrop Combi. Measurement was done immediately after the addition using an EnVision reader (US-luminescence read-mode).
(§9) For data evaluation and calculation, the measurement of the low control was set as 0% control and the measurement of the high control was set as 100% control. The IC50 values were calculated using the standard 4 parameter logistic regression formula. Calculation: [y=(a−d)/(1+(x/c)^b)+d], a=low value, d=high value; x=conc M; c=IC50 M; b=slope

[2] = tested on: cellular cGAS activity in baculovirus-stimulated THP1-Dual cells (IRF dependent Lucia luciferase reporter); assay: Human cGAS cell assay: inhibition of IFN induction in virus-stimulated THP1 cells (THP1(vir) IC50); type: cell-based; details: Homo sapiens, THP1-Dual
Source text: as §1, §2, §3, §4, §5, §6, §7, §8, §9

[3] = target: cGAS (Homo sapiens (Human), UniProt Q8N884); assay: Human cGAS enzyme assay (hcGAS IC50, in vitro), cGAMP formation by RapidFire MS; type: biochemical;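 also: enzyme activated by 45 bp dsDNA with GTP and ATP (30 µM each), 60 min compound pre-incubation then 90 min reaction, cGAMP relative to cyclic-di-GMP internal standard, 8-point dilutions up to 10 µM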
[4] = tested on: cellular cGAS activity in dsDNA-stimulated human whole blood; assay: Human whole blood assay (hWB IC50): IFNα2α production after dsDNA transfection; type: cell-based
Experimental: 6.3 Method: Human Whole Blood Assay (Human WB IC50)
For the detection of cellular cGAS activity human whole blood was stimulated by transfection with double stranded DNA. Pathway activity was monitored by measuring the IFNα2α production.
Compounds were delivered as 10 mM DMSO solution and serially diluted and transferred to the 96-well cell culture plate (Corning #3595), prefilled with 20 μl OptiMEM (Gibco, #11058-021) in each well, using an Echo acoustic dispenser. Typically, 8 concentrations were used with the highest concentration at 10 µM in the final assay volume followed by ˜1:5 dilution steps. DMSO concentration was set to 0.1% in the final assay volume. The 96-well assay plate contained 10 test compounds, and DMSO in control wells.
Collection of human whole blood from 3 or more healthy donors (male or female, no medication for 7 days except contraceptive and thyroxine) as Na-Citrate blood (e.g. 3.8% in Monovettes from Sarstedt) was conducted in parallel. Whole blood was kept at room temperature for a maximum of 3 hours after collection until use in the assay.
160 μl of the whole blood samples was transferred to each well of the 96-well assay plates filled with compound/OptiMEM. All assay plates were prepared as duplicates with blood from different donors. Blood plates were kept at room temperature for 60 minutes and continuous shaking with 450 rpm, covered with the lid, but not sealed.
20 μl OptiMEM and 9.6:1 Fugene was added to all low control wells.
After covering assay plates with aera seals and the lid, blood plates were kept at room temperature for 30 minutes and continuous shaking with 450 rpm, followed by an overnight incubation of 22 h at 37° C. in the incubator, without shaking.
For the detection of IFNα-2α in human plasma, the biotinylated capture antibody (Antibody set IFNA2, Meso Scale Diagnostics #B21VH-3, including coating and capture antibody) was diluted 1:17.5 in Diluent 100 (Meso Scale Diagnostics #R^50AA-4), according to the manufacturer's directions. U-Plex MSD GOLD 96-well Small Spot Strepavidin SECTOR Plates (Meso Scale Diagnostics #L45SA-5) were coated with 25 μl diluted capture antibody. Coated plates were incubated for 60 min at room temperature under continuous shaking at 700 rpm. MSD IFNα-2α plates were washed three times with 150 μl wash buffer (1x HBSS, 0.05% Tween).
After blocking the plates with 100 μl block solution/well (1x HBSS with 0.2% Tween, 2% BSA) for 60 min at room temperature and continuous shaking at 700 rpm, plates were emptied as dry as possible by dumping just before continuing with the human plasma.
Whole Blood assay plates were centrifuged at 1600 rpm for 10 minutes. 25 μl of supernatant was transferred with a pipetting robot from each whole blood plate to the corresponding IFNα-2α plate. Plates were sealed with microplate seals and kept at room temperature again under continuous shaking at 700 rpm for two hours.
Next MSD IFNα-2α plates were washed three times with 150 μl wash buffer (1×HBSS, 0.05% Tween), before adding 25 μl MSD SULFO-TAG IFNα-2α Antibody solution (1:100 diluted in Diluent 3 (Meso Scale Diagnostics #R50AP-2) to each well of the plates.
Afterwards plates were sealed with microplate seals and kept at room temperature again under continuous shaking at 700 rpm for two hours. Finally, MSD IFNα-2α plates were washed three times with 150 μl wash buffer (1×HBSS, 0.05% Tween). 150 μl 2× Read buffer was added to each well and plates were immediately measured with the MSD Sector S600 Reader using the vendor barcode.
For data evaluation and calculation, % control calculation of each well was based on the mean of high (DNA stimulated control) and mean of low (unstimulated control) controls by using the following formula:
[counts(sample)−counts(low))/(counts(high)−counts(low))]*100
The IC50 values were calculated using the standard 4 parameter logistic regression formula. Calculation: [y=(a−d)/(1+(x/c)^b)+d], a=low value, d=high value; x=conc M; c=IC50 M; b=slope

[5] = inhibition of IFN induction in cGAMP-stimulated THP1 cells
[6] = inhibition of IFN induction in virus-stimulated THP1 cells, read-out: THP1(vir) IC50
[7] = biochemical (in vitro) cGAS inhibition
[8] = inhibition of IFN induction in dsDNA-stimulated human whole blood

Chain of cGAS (Q8N884 whole entry): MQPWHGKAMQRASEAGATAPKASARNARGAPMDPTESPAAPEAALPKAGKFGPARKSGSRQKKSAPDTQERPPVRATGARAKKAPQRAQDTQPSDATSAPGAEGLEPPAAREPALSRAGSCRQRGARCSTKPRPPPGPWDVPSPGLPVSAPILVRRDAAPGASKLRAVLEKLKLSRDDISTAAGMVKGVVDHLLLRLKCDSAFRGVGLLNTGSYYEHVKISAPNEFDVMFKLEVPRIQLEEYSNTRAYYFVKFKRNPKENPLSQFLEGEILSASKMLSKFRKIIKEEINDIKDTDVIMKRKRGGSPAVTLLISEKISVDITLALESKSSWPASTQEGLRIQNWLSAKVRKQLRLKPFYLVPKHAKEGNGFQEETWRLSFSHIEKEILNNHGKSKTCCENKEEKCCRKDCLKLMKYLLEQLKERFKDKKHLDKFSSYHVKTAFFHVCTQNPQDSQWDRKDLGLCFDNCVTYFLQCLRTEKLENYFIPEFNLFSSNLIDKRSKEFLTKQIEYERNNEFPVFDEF

Row | Structure (SMILES) | IC50 [2, 6] [nM] | IC50 [3, 7] [nM] | IC50 [4, 8] [nM] | IC50 [1, 5] [nM] | Ratio THP1(cGAMP) IC50 / THP1(vir) IC50 [1] | IC50 ([1]; cGAMP-stimulated THP1 cells, counter assay) [nM] | IC50 ([2]; read-out: THP1(vir) IC50, virus-stimulated THP1 cells, IFN induction) [nM] | IC50 ([3]; biochemical (in vitro), human cGAS, 45 bp dsDNA, GTP/ATP) [nM] | IC50 ([4]; dsDNA-stimulated human whole blood, IFN induction) [nM]
1 | C[C@@H]1N(c2cc(-c3cn(C)nn3)cnc2O[C@H]2C[C@@H](C(=O)O)N(c3nc(C(F)(F)F)nc4c3oc3ccccc34)C2)CCOC12COC2 [Example 8.01, (2S,4S)-4-{[5-(1-methyl-1H-1,2,3-triazol-4-yl)-3-[(95)-9-methyl-2,5-dioxa-8-azaspiro[3.5]nonan-8-yl]pyridin-2-yl]oxy}-1-[4-(trifluoromethyl)-8-oxa-3,5-diazatricyclo[7.4.0.0^2,7]trideca-1(9),2(7),3,5,10,12-hexaen-6-yl]pyrrolidine-2-carboxylic acid] | 11 | 5 | 21 | 14900 | 1366 | – | – | – | –
2 | C[C@H]1COCCN1c1cc(-c2ccncc2)cnc1O[C@H]1C[C@@H](C(=O)O)N(c2nc(C(F)(F)F)nc3c2oc2ccccc23)C1 [Example 3.01, (2S,4S)-4-({5-[(3S)-3-methylmorpholin-4-yl]-[3,4′-bipyridin]-6-yl}oxy)-1-[4-(trifluoromethyl)-8-oxa-3,5-diazatricyclo[7.4.0.0^2,7]trideca-1(9),2(7),3,5,10,12-hexaen-6-yl]pyrrolidine-2-carboxylic acid] | 982 | 9 | 1610 | > 16600 | >17 | – | – | – | –
3 | COC(=O)[C@@H]1C[C@H](Oc2ncc(Br)cc2N2CCOC3(COC3)[C@@H]2C)CN1c1nc(C(F)(F)F)nc2c1oc1ccccc12 [Example P02] | – | – | – | – | – | 17100 | 444 | > 9950 | 5330
4 | C[C@@H]1N(c2cc(-c3ccnc([S+](C)[O-])c3)cnc2O[C@H]2C[C@@H](C(=O)O)N(c3nc(C(F)F)nc4c3oc3ccccc34)C2)CCOC12COC2 (stereo partly drawn) [Example 5.01, (2S,4S)-1-[4-(Difluoromethyl)-8-oxa-3,5-diazatricyclo[7.4.0.0^2,7]trideca-1(9),2(7),3,5,10,12-hexaen-6-yl]-4-({2′-methanesulfinyl-5-[(95)-9-methyl-2,5-dioxa-8-azaspiro[3.5]nonan-8-yl]-[3,4′-bipyridin]-6-yl}oxy)pyrrolidine-2-carboxylic acid] | 579 | 5 | 239 | 22100 | 38 | – | – | – | –
5 | C#Cc1cnc(O[C@H]2C[C@@H](C(=O)O)N(c3nc(C(F)F)nc4c3oc3ccccc34)C2)c(N2CCCC3(COC3)[C@@H]2C)c1 [Example 1.23] | 10 | 4 | 12 | 10900 | 1134 | – | – | – | –
6 | COc1csc(-c2cnc(O[C@H]3C[C@@H](C(=O)O)N(c4nc(C(F)(F)F)nc5c4oc4ccccc45)C3)c(N3CCOC4(COC4)[C@@H]3C)c2)n1 [Example 7.02] | 1 | 14 | 13 | 8320 | 7533 | – | – | – | –
7 | COc1cc(-c2cnc(O[C@H]3C[C@@H](C(=O)O)N(c4nc(C(F)(F)F)nc5c4oc4ccccc45)C3)c(N3CCOC4(COC4)[C@@H]3C)c2)c(F)cn1 [Example 3.25] | 19 | 9 | 96 | 9710 | 502 | – | – | – | –
8 | C[C@@H]1N(c2cc(-c3cccc(CN)c3)cnc2O[C@H]2C[C@@H](C(=O)O)N(c3nc(C(F)F)nc4c3oc3ccccc34)C2)CCOC12COC2 [Example 3.19] | 267 | 8 | 47 | > 16600 | >62 | – | – | – | –

More lines, main results first:

Row | IC50 [2, 6] [nM] | IC50 [3, 7] [nM] | IC50 [4, 8] [nM] | Structure (SMILES) | IC50 [1, 5] [nM] | Ratio THP1(cGAMP) IC50 / THP1(vir) IC50 [1] | IC50 ([1]; cGAMP-stimulated THP1 cells, counter assay) [nM] | IC50 ([2]; read-out: THP1(vir) IC50, virus-stimulated THP1 cells, IFN induction) [nM] | IC50 ([3]; biochemical (in vitro), human cGAS, 45 bp dsDNA, GTP/ATP) [nM] | IC50 ([4]; dsDNA-stimulated human whole blood, IFN induction) [nM]
9 | 4 | 5 | 3 | CNc1cc(-c2cnc(O[C@H]3C[C@@H](C(=O)O)N(c4nc(C(F)F)nc5c4oc4ccccc45)C3)c(N3CCOC4(COC4)[C@@H]3C)c2)ccn1 [Example 3.08] | 4790 | 1179 | – | – | – | –
10 | 757 | 12 | 2420 | C[C@H]1COCCN1c1cc(-c2ccnc(C(F)F)c2)cnc1O[C@H]1C[C@@H](C(=O)O)N(c2nc(C(F)(F)F)nc3c2oc2ccccc23)C1 [Example 3.04] | 7780 | 10 | – | – | – | –
11 | 48 | 11 | 1370 | C[C@@H]1N(c2cc(-c3cncc(Cl)c3)cnc2O[C@H]2C[C@@H](C(=O)O)N(c3nc(C(F)(F)F)nc4c3oc3ccccc34)C2)CCOC12COC2 [Example 3.26] | 9240 | 193 | – | – | – | –
12 | 17 | 12 | 42 | COc1c(-c2cnc(O[C@H]3C[C@@H](C(=O)O)N(c4nc(C(F)F)nc5c4oc4ccccc45)C3)c(N3CCOC4(COC4)[C@@H]3C)c2)ccnc1N(C)C [Example 4.02] | 12600 | 735 | – | – | – | –
